Among the data in ChEMBL document CHEMBL5365420, “Kinetics, Thermodynamics, and Structural Effects of Quinoline-2-Carboxylates, Zinc-Binding Inhibitors of New Delhi Metallo-β-lactamase-1 Re-sensitizing Multidrug-Resistant Bacteria for Carbapenems” (J Med Chem, 2023) are IC50 and MIC values, retold here.

The target in test [1] is 72 kDa type IV collagenase (Homo sapiens, UniProt P08253). Nature of the test: Inhibition of human recombinant MMP-2 CD using OMNIMMP as substrate incubated for 30 mins by fluorescence based analysis.
Test [2] deals with Klebsiella pneumoniae. Kind of test: Antibacterial activity against clinical isolate Klebsiella pneumoniae 50/20 expressing blaNDM-5 co-expressing blaTEM-1 and blaSHV-1 assessed as inhibition of bacterial growth measured after 20 hrs by broth microdilution assay. The class given is functional. (In general: In broth dilution the organism is exposed to a series of concentrations in liquid medium.)

Test [3] concerns Klebsiella pneumoniae. Kind of test: Antibacterial activity against clinical isolate Klebsiella pneumoniae ST1493/10 expressing blaNDM-1 co-expressing blaCMY-2like/blaTEM-1/blaCTX-M-15/blaSHV-28/blaOXA-1 and blaOXA-9 assessed as inhibition of bacterial growth measured after 20 hrs by broth microdilution assay. The class given is functional.
In test [4] the test system is Escherichia coli. Kind of test: Antibacterial activity against clinical isolate Escherichia coli 371/12 expressing blaNDM-7 co-expressing blaCTX-M-15 and blaOXA-1 assessed as inhibition of bacterial growth measured after 20 hrs by broth microdilution assay. The class given is functional.
The test system of test [5] is Escherichia coli. Kind of test: Antibacterial activity against clinical isolate Escherichia coli K12 J53-ST10 684/18 expressing bla-NDM-1 co-expressing bla-CMY-2 and bla-OXA-10 assessed as inhibition of bacterial growth measured after 20 hrs by broth microdilution assay. The class given is functional.
The subject of test [6] is Klebsiella pneumoniae. Kind of test: Antibacterial activity against clinical isolate Klebsiella pneumoniae ST23213/19 expressing blaNDM-1 co-expressing blaOXA-48/blaSHV-11/blaCTX-M-15 and blaOXA-1 assessed as inhibition of bacterial growth measured after 20 hrs by broth microdilution assay. The class given is functional.
The test system of test [7] is Escherichia coli. Nature of the test: Antibacterial activity against clinical isolate Escherichia coli K12 J53-ST10 699/15 expressing blaNDM-1 assessed as inhibition of bacterial growth measured after 20 hrs by broth microdilution assay. The class given is functional.
Test [8] concerns Escherichia coli. Nature of the test: Antibacterial activity against clinical isolate Escherichia coli ST1012/10 expressing blaNDM-1 co-expressing blaTEM-1/blaCTX-M-15/blaOXA-1 and blaOXA-2 assessed as inhibition of bacterial growth measured after 20 hrs by broth microdilution assay. The class given is functional.
For test [9], the system named is Escherichia coli. Nature of the test: Antibacterial activity against clinical isolate Escherichia coli K12 J53-ST10 618/15 expressing blaNDM-1 assessed as inhibition of bacterial growth measured after 20 hrs by broth microdilution assay. The class given is functional.
A further test concerns Acinetobacter baumannii. Nature of the test: Antibacterial activity against clinical isolate Acinetobacter baumannii IC 19/09 expressing blaNDM-1 co-expressing blaOXA-64 assessed as inhibition of bacterial growth measured after 20 hrs by broth microdilution assay. The class given is functional.
For test [10], the system named is Klebsiella pneumoniae. Kind of test: Antibacterial activity against clinical isolate Klebsiella pneumoniae 62/07 expressing blaVIM-19 co-expressing blaSHV-1/blaCTX-M-14 and blaCMY-4 assessed as inhibition of bacterial growth measured after 20 hrs by broth microdilution assay. The class given is functional.
Test [11] has as its system Escherichia coli. Nature of the test: Antibacterial activity against clinical isolate Escherichia coli K12 J53-ST10 696/17 expressing blaNDM-1 co-expressing blaCMY-4 assessed as inhibition of bacterial growth measured after 20 hrs by broth microdilution assay. The class given is functional.
Test [12] has as its system Klebsiella pneumoniae. Kind of test: Antibacterial activity against clinical isolate Klebsiella pneumoniae 50/11 expressing blaNDM-1 co-expressing blaTEM-1/blaSHV-28/blaTEM-1/blaCTX-M-15 and blaOXA-1 assessed as inhibition of bacterial growth measured after 20 hrs by broth microdilution assay. The class given is functional.

Converted amounts (≈) assume the structure as drawn. Bounds are passed on as bounds.

The term IC50 denotes the midpoint of a concentration-inhibition curve. In general, MIC refers to the smallest concentration in the dilution series that meets the test's criterion for growth inhibition.

Chain of 72 kDa type IV collagenase (P08253 whole entry): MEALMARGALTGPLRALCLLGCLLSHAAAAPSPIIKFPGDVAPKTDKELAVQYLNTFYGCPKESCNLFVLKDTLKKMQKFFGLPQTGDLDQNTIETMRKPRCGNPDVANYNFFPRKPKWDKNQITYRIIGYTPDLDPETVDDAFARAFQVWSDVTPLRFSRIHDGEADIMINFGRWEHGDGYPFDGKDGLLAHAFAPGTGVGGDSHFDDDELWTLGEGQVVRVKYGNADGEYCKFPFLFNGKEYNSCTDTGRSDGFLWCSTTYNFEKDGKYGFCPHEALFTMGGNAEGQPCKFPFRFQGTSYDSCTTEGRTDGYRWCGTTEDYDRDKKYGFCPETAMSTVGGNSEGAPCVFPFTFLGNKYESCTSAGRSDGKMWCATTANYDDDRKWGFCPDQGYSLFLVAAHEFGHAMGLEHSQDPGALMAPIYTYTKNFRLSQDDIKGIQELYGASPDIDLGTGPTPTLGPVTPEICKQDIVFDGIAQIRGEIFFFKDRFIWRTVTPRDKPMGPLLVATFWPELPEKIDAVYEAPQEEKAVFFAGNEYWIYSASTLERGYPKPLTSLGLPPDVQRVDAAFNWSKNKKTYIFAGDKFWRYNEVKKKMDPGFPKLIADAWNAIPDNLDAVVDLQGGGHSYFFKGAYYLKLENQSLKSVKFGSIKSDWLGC

Regarding `O=C(O)[C@H](Cc1ccccc1)NS(=O)(=O)c1ccc(-c2ccccc2)cc1`, the 50% inhibitory concentration (IC50) in test [1] is 0.266 µM.

Regarding `C[C@@H](O)[C@H]1C(=O)N2C(C(=O)O)=C(S[C@@H]3CN[C@H](C(=O)N(C)C)C3)[C@H](C)[C@H]12` [MEROPENEM], the MIC is 64 µg/mL (≈ 167 µM) in the test with Klebsiella pneumoniae [2]; 128 µg/mL (≈ 334 µM) in the test on Klebsiella pneumoniae [3]; 64 µg/mL (≈ 167 µM) with Escherichia coli [4]; 64 µg/mL (≈ 167 µM) with Escherichia coli [5]; above 128 µg/mL in the test with Klebsiella pneumoniae [6]; 32 µg/mL (≈ 83.4 µM) in the test on Escherichia coli [7]. The MIC in the test with Escherichia coli [8] is 128 µg/mL (≈ 334 µM); in the test on Escherichia coli [9] it was 32 µg/mL (≈ 83.4 µM); with Acinetobacter baumannii, above 128 µg/mL; in the test with Klebsiella pneumoniae [10], 128 µg/mL (≈ 334 µM); in the test on Escherichia coli [11], 16 µg/mL (≈ 41.7 µM); in the test with Klebsiella pneumoniae [12] it was 64 µg/mL (≈ 167 µM).
